Measurements from patent US9220771B2, “Peptide for use in the treatment of breast cancer and/or bone metastases” (MERCK PATENT GMBH, priority 2010, dated 2015).
Values belong to the molecule of their own block, whether it stands above or below them.

Key:
[1] = test system: MDA-MB-231 breast cancer bone metastases; test: Histology / immunofluorescence of experimental breast cancer bone metastases; format: in vivo, nude rats (RNU strain); settings: after 4 weeks treatment with cilengitide; control rats 8.8 μm; p<0.01
Protocol: At the end of the observation period lower limbs of each animal are amputated and muscular tissue removed. Bones with surrounding soft tissue tumors are stored in 70% ethanol and embedded in a methylmethacrylat-based compound (Technovit® 9100 NEU, Heraeus Kulzer, Hanau, Germany) according to the instructions of the manufacturer. 5 μm-thick sections are cut (Microm HM340e microtome; Thermo Scientific, Waltham, Mass.), mounted on SuperFrost Plus microscope slides and dried overnight at 60° C. Additional freshly removed soft tissue tumors are embedded in optimum cutting temperature compound (OCT, TissueTec, Sakura, Japan) and stored at −80° C. […] Mean positive area fractions of SMA and collagen IV (in percent) as well as mean vessel diameters (in μm) are determined from 4 representative animals of each group analyzing 10 fields of view chosen randomly from each rat using Analysis Software (cell^F; Olympus Soft Imaging Solutions, Münster, Germany). […]
For light microscopical analysis, sections are stained with Mayer's hematoxylin (Carl Roth, Karlsruhe, Germany) and eosin (Merck, Darmstadt, Germany), mounted using Eukitt mounting medium (O. Kindler, Freiburg, Germany) and analyzed using a microscope (DM LB; Leica, Wetzlar, Germany) equipped with a digital camera (DFC 320; Leica, Wetzlar, Germany). […]

[2] = test system: U251 human glioblastoma cells; test: Rat orthotopic glioblastoma model, radiotherapy and cilengitide scheduling, survival; format: in vivo, NIH rnu nude rats; settings: t-4 and t-8 h groups, cilengitide 4 mg/kg + 25 Gy
Protocol: NIH rnu nude rats are anaesthetized, restrained, and injected intracerebrally 1 mm retro orbitally, 3 mm to the right of the bregma and at a depth of 2.5 mm with 5×10E5 U251 human glioblastoma cells suspended in 10 ul of culture medium, using a #2701 Hamilton syringe fitted with a 26 gauge needle, essentially as previously described (Engebraaten et al., 1999). After 14 days, cilengitide (4 mg/kg) is given as an intraperitoneal bolus in PBS, at various time (8 h, 4 h, 2 h, 1 h) prior to a single treatment with single, collimated, dorsal-ventral beam of 6 MV x-rays, so that 95-100% of the central axis dose of 25 Gy hit the tumor volume (Kim et al., 1999). Each of the 7 subsequent days the animals also received an identical i.p. bolus of cilengitide. The animals are maintained under ad libitum food and drink until they become moribund, or are sampled for tissue analysis (in the t-4 and t-8 h groups, where the animals are healthy past 230 days post tumor injection). A Kaplan-Meier survival curve is calculated and plotted (FIG. 7) from the raw data (Table 2). All animals in the RT monotherapy group died by 120 d.

[3] = test system: MDA-MB468 human breast tumour cells; test: Study 007: MDA-MB-468 orthotopic primary tumor growth; format: in vivo, female BALB/c nu/nu mice; settings: all three dosing groups (75, 150 or 300 mg/kg), daily s.c.; Vehicle Control higher than 350 mm^3
Protocol: MDA-MB468 human breast tumour cells were orthotopically inoculated into the third mammary fat pad of female BALB/c nu/nu mice. The mice were randomised into groups when the tumors reached a size of approximately 40 mm^3.
The mice in each group received treatment with either Vehicle Control (Placebo) or EMD 121974 (75, 150 or 300 mg/kg) by daily subcutaneous injection. Body weight and tumour volume measurements were made for all mice three times per week.

[4] = test system: MDA-MB-231 breast cancer bone metastases; test: DCE-MRI of experimental breast cancer bone metastases (amplitude A, exchange rate constant kep); format: in vivo, nude rats (RNU strain); settings: cilengitide 75 mg/kg
Protocol: (§1) T2-weighted imaging is performed using a turbo spin echo sequence (orientation axial, TR 3240 ms, TE 81 ms, matrix 152×256, FOV 90×53.4 mm^2, slice thickness 1.5 mm, 3 averages, scan time 3 min 40 s). For dynamic contrast-enhanced MRI, a saturation recovery turbo flash sequence through the largest diameter of the tumor (orientation axial, TR 373 ms, TE 1.86 ms, matrix 192×144, FOV 130×97.5 mm, slice thickness 5 mm, measurements 512, averages 1, scan time 6 min 55 s) is used. After 20 s baseline, 0.1 mmol/kg Gd-DTPA (Magnevist; Bayer Schering Pharma, Berlin, Germany) is intravenously infused for a time period of 10 s.
Unenhanced VCT images and MRI-acquired T2-weighted images are analyzed using the Medical Imaging Interaction Toolkit (MITK, Heidelberg, Germany) to determine volumes of osteolytic lesions and soft tissue components, respectively. DCE-MRI acquired data is analyzed using the Dynalab workstation (Mevis Research, Bremen, Germany) according to the two-compartment model of Brix to determine the parameters amplitude A and exchange rate constant kep, as described.^23, 30 Briefly, the injected contrast media is distributed in both compartments (intravascular space and extravascular, interstitial space). The accumulation of contrast agent in these compartments over time is characterized by the amplitude A (associated with blood volume), whereas the exchange of contrast agent between the intravascular space and the interstitial space is characterized by the exchange rate constant kep (associated with vessel permeability). For determination of the respective values of the amplitude A and kep of bone metastases in our study, a region of interest is placed around the soft tissue component on color maps for A and kep, respectively, using the Dynalab workstation (Mevis Research, Bremen, Germany).
For each animal, volumes of the osteolysis and soft tissue component, amplitude A and exchange rate constant kep are plotted versus time after tumor cell inoculation (due to technical reasons one animal of the control group can not be evaluated for the amplitude A and kep). Normalization of the data to the corresponding initial value at day 30 for each animal is performed and changes are expressed in percent. For statistical comparisons of data from non-invasive imaging and histological analysis, the respective values are compared between the control and treatment groups using the two-sided Wilcoxon-Test; p-values <0.05 are considered significant.

[5] = test system: MDA-MB-231 breast cancer bone metastases; test: Experimental breast cancer bone metastases in nude rats: volumes of osteolytic lesions and soft tissue components by VCT and MRI; format: in vivo, nude rats (RNU strain); settings: for mean relative volume of soft tissue components (STC), increase compared to initial value at day 30 / mean relative volume of osteolytic lesions (OL), increase compared to initial value at day 30: cilengitide 75 mg/kg i.p. five times per week from day 30; for mean relative volume of soft tissue components (STC), increase compared to initial value at day 30: MRI
Protocol: For this purpose, nude rats bearing established breast cancer bone metastases are treated with cilengitide, a small molecule inhibitor of αvβ3 and αvβ5 integrins (75 mg/kg, five days per week; n=12 rats) and compared to vehicle treated control rats (n=12). In a longitudinal study, conventional magnetic resonance imaging (MRI) and flat panel volumetric computed tomography (VCT) are used to assess the volume of the soft tissue tumor and osteolysis, respectively, and dynamic contrastenhanced (DCE-) MRI is performed to determine functional parameters of the tumor vasculature reflecting blood volume and blood vessel permeability.
Nude rats (RNU strain) are obtained from Harlan-Winkelmann GmbH (Borchen, Germany) at the age of six weeks and housed in a specific pathogen-free environment in a mini barrier system of the central animal facility. Animals are kept under controlled conditions (21±2° C. room temperature, 60% humidity, 12 h light-dark rhythm) and offered autoclaved food and water ad libitum. Sub-confluent MDAMB- 231 cells are harvested using 0.05% Trypsin-EDTA (Gibco®; Invitrogen, Karlsruhe, Germany) counted on a Neubauer's chamber and resuspended in RPMI-1640 to a final concentration of 10^5 cells in 200 μl. Rats are anesthetized using a mixture of nitrous oxide (1 l/min), oxygen (0.5 l/min) and isoflurane (1.5 vol. %). Arterial branches of the right hind leg are dissected and 10^5 cells injected into the superficial epigastric artery as described previously.^28 Bone metastases established and are observed exclusively in the femur, tibia and fibula of the right hind leg. 30 days after cancer cell transplantation, rats (n=24) are randomly divided into two groups, one group receiving the cyclic RGD-peptide inhibitor of αvβ3/αvβ5 integrins (cilengitide, EMD 121974^14, 17, 29; Merck, Darmstadt, Germany) intraperitoneally five times per week in isotonic saline (75 mg/kg; n=12 rats) and the other, sham-treated group, serving as a control (n=12 rats). The observation period of all animals is 55 days and no rat in the study dies ahead of schedule.
After the inoculation of cancer cells each rat is imaged at days 30, 35, 45 and 55 using (i) a flat-panel equipped volumetric computed tomograph (Volume CT, Siemens, Germany) and (ii) a 1.5T clinical magnetic resonance scanner (Symphony, Siemens, Erlangen, Germany) equipped with a home-built receive-transmit coil (cylindrical volume resonator with an inner diameter of 83 mm and a usable length of 120 mm). Prior to in vivo imaging with VCT and MRI, rats aree anesthetized with nitrous oxide, oxygen and isoflurane as described above.
VCT imaging is obtained using the following parameters: tube voltage 80 kV, tube current 50 mA, scan time 51 s, rotation speed 10 s, frames per second 120, matrix 512×512, and slice thickness 0.2 mm. Image reconstructions are performed using a modified FDK (Feldkamp Davis Kress) cone beam reconstruction algorithm (kernel H80a; Afra, Erlangen, Germany).
as §1
Unenhanced VCT images and MRI-acquired T2-weighted images are analyzed using the Medical Imaging Interaction Toolkit (MITK, Heidelberg, Germany) to determine volumes of osteolytic lesions and soft tissue components, respectively. […]

[6] = test system: Patients With Newly Diagnosed Glioblastoma (GBM); test: Phase I/IIa trial of Cilengitide and temozolomide with concomitant radiotherapy; format: in vivo, human
Protocol: Purpose: To evaluate safety, toxicity, and efficacy of the combination of the cyclic RGD pentapeptide Cilengitide (=cyclo-(Arg-Gly-Asp-DPhe-NMe-Val)), an inhibitor of integrins αvβ3 and αvβ5, in addition to standard temozolomide (TMZ) and radiotherapy (RT).
Patients and methods: Fifty-two pts (PS 0-1: 92%, 2: 8%; median age 57 yrs) after biopsy (n=9/17%) or tumor resection (n=43/83%) were treated with standard TMZ/RT (Stupp et al. NEJM 2005). In addition Cilengitide (500 mg i.v., 2×/week) was started one week before TMZ/RT and given throughout for the duration of chemotherapy or until progression. Primary endpoint was progression free survival rate at 6 months (target: 65%). Patients were followed with MRI every 2 months. Histopathologic diagnosis and MRI imaging were independently reviewed, MGMT promotor methylation status was assessed in 45 (86.5%) pts.

[7] = test system: HER2-positive advanced BRCA; settings: in combination with capecitabine, 2nd line; cited from earlier work
[8] = Cilengitide 500 mg i.v. 2x/week with TMZ/RT, of 52 patients

grade 3 constitutional symptoms (asthenia, fatigue, anorexia) [6, 8]: 3 n
grade 3 deep venous thrombosis and pulmonary embolism [6, 8]: 1 n
grade 3 elevated liver function tests [6, 8]: 1 n
Structure (SMILES): CC(C)[C@H]1C(=O)N[C@@H](CCCN=C(N)N)C(=O)NCC(=O)N[C@@H](CC(=O)O)C(=O)N[C@H](Cc2ccccc2)C(=O)N1C [Cilengitide, cyclo-(Arg-Gly-Asp-DPhe-NMeVal)]
mean vessel diameter in bone metastases [1]: 6.6 μm
time animals are healthy post tumor injection [2]: > 230 days
tumour volume on day 60 [3]: below 200 mm^3
DCE-MRI amplitude A (associated with blood volume), mean relative value ([4]; day 35, p>0.05 vs control): 97 % of initial value
DCE-MRI exchange rate constant kep (associated with vessel permeability), mean relative value ([4]; day 35, p>0.05 vs control): 69 % of initial value
DCE-MRI amplitude A (associated with blood volume), mean relative value ([4]; day 45, p<0.05 vs control): 102 % of initial value
DCE-MRI exchange rate constant kep (associated with vessel permeability), mean relative value ([4]; day 45, p>0.05 vs control): 88 % of initial value
DCE-MRI amplitude A (associated with blood volume), mean relative value ([4]; day 55, p<0.05 vs control): 93 % of initial value
DCE-MRI exchange rate constant kep (associated with vessel permeability), mean relative value ([4]; day 55, p<0.05 vs control): 72 % of initial value
mean relative volume of soft tissue components (STC), increase compared to initial value at day 30 ([5]; day 35): 2.2 fold
mean relative volume of osteolytic lesions (OL), increase compared to initial value at day 30 ([5]; day 35, VCT): 1.5 fold
mean relative volume of soft tissue components (STC), increase compared to initial value at day 30 ([5]; day 45, p<0.05 vs control): 4.9 fold
mean relative volume of osteolytic lesions (OL), increase compared to initial value at day 30 ([5]; day 45, VCT, p<0.05 vs control): 2.4 fold
mean relative volume of soft tissue components (STC), increase compared to initial value at day 30 ([5]; day 55, p<0.01 vs control): 6.3 fold
mean relative volume of osteolytic lesions (OL), increase compared to initial value at day 30 ([5]; day 55, VCT, p<0.01 vs control): 3.5 fold
rats showing new bone formation in the osteolytic lesion ([5]; treatment group (three of 12 rats), cilengitide 75 mg/kg, VCT, not seen in controls): 25%
treatment related non-hematologic grade 3 toxicities ([6]; Cilengitide 500 mg i.v. 2x/week with TMZ/RT, 3/52 patients): 5.7%
tolerability of the combination ([6]; Cilengitide and TMZ/RT): well tolerated

Structure (SMILES): CS(=O)(=O)CCNCc1ccc(-c2ccc3ncnc(Nc4ccc(OCc5cccc(F)c5)c(Cl)c4)c3c2)o1 [Lapatinib]
improvement of median time to progression compared to capecitabine alone [7]: 4 months
